These compounds were tested against T1, aurora-A (human) (Homo sapiens, UniProt O14965) (assay: Aurora-A (human) kinase assay). Details: read-out: Activity (Aurora A activity, IC50 grading).
T1 construct: purchased Upstate, Dundee, UK
T1 sequence (O14965 1-403): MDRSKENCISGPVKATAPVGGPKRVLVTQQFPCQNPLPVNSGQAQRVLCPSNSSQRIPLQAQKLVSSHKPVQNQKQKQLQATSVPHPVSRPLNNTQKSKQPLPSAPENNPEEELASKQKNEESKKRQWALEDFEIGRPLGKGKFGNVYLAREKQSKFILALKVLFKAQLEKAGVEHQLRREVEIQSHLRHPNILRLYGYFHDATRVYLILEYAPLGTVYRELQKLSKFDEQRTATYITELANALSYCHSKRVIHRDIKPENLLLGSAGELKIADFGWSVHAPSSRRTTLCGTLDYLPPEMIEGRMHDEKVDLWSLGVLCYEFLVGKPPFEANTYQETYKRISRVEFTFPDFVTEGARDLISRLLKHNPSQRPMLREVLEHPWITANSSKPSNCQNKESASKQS
Type: biochemical
How it was run: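 Radiometric assay measuring [γ-32P] transfer from 100 μM ATP to 500 μM Kemptide by 2-5 ng active human aurora-A, pH 7.5 buffer, 30 min at 30° C. Incorporated label captured on P81 filters and counted by scintillation; IC50 from curve fitting.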
In the case of `COc1ccc(Nc2nccc(-c3c(C)c4n(c3C)CCNC4=O)n2)c(OC)c1` [Example I-85, 7-[2-(2,4-Dimethoxy-phenylamino)-pyrimidin-4-yl]-6,8-dimethyl-3,4-dihydro-2H-pyrrolo[1,2-a]pyrazin-1-one], the IC50 is reported as less than 10 µM.
`Cc1c(-c2ccnc(Nc3ccc(F)cc3Cl)n2)c(C)n2c1C(=O)NCC2` [Example I-86, 7-[2-(2-Chloro-4-fluoro-phenylamino)-pyrimidin-4-yl]-6,8-dimethyl-3,4-dihydro-2H-pyrrolo[1,2-a]pyrazin-1-one] gave an IC50 of less than 10 µM.
In the case of `COc1ccc(Cl)cc1Nc1nccc(-c2c(C)c3n(c2C)CCNC3=O)n1` [Example I-87, 7-[2-(5-Chloro-2-methoxy-phenylamino)-pyrimidin-4-yl]-6,8-dimethyl-3,4-dihydro-2H-pyrrolo[1,2-a]pyrazin-1-one], the IC50 is reported as less than 10 µM.
For `Cc1ccc(F)cc1Nc1nccc(-c2c(C)c3n(c2C)CCNC3=O)n1` [Example I-88, 7-[2-(5-Fluoro-2-methyl-phenylamino)-pyrimidin-4-yl]-6,8-dimethyl-3,4-dihydro-2H-pyrrolo[1,2-a]pyrazin-1-one], the IC50 was less than 10 µM.
`Cc1ccc(Oc2ccc(Nc3nccc(-c4c(C)c5n(c4C)CCNC5=O)n3)cc2)cc1` [Example I-89, 6,8-Dimethyl-7-[2-(4-p-tolyloxy-phenylamino)-pyrimidin-4-yl]-3,4-dihydro-2H-pyrrolo[1,2-a]pyrazin-1-one] showed an IC50 of less than 10 µM.
`CCN(CC)CCNS(=O)(=O)c1ccc(Nc2nccc(-c3c(C)c4n(c3C)CCNC4=O)n2)cc1C` [Example I-90, N-(2-Diethylamino-ethyl)-4-[4-(6,8-dimethyl-1-oxo-1,2,3,4-tetrahydro-pyrrolo[1,2-a]pyrazin-7-yl)-pyrimidin-2-ylamino]-2-methyl-benzenesulfonamide] gave an IC50 of less than 10 µM.
With `Cc1cc(Nc2nccc(-c3c(C)c4n(c3C)CCNC4=O)n2)ccc1S(=O)(=O)N(C)CCCN(C)C` [Example I-91, N-(3-Dimethylamino-propyl)-4-[4-(6,8-dimethyl-1-oxo-1,2,3,4-tetrahydro-pyrrolo[1,2-a]pyrazin-7-yl)-pyrimidin-2-ylamino]-2,N-dimethyl-benzenesulfonamide] the IC50 was less than 10 µM.
Compound `CCOC(=O)c1c(C)nn(-c2ccc(Nc3nccc(-c4c(C)c5n(c4C)CCNC5=O)n3)cc2)c1C` [Example I-92, 1-{4-[4-(6,8-Dimethyl-1-oxo-1,2,3,4-tetrahydro-pyrrolo[1,2-a]pyrazin-7-yl)-pyrimidin-2-ylamino]-phenyl}-3,5-dimethyl-1H-pyrazole-4-carboxylic acid ethyl ester] has an IC50 of less than 10 µM.
Compound `Cc1nccc(-c2cccc(Nc3nccc(-c4c(C)c5n(c4C)CCN(C)C5=O)n3)c2)n1` [Example I-93, 2,6,8-Trimethyl-7-{2-[3-(2-methyl-pyrimidin-4-yl)-phenylamino]-pyrimidin-4-yl}-3,4-dihydro-2H-pyrrolo[1,2-a]pyrazin-1-one] has an IC50 of less than 0.1 µM.
`Cc1c(-c2ccnc(Nc3ccc4c(c3)CS(=O)(=O)C4)n2)c(C)n2c1C(=O)N(C)CC2` [Example I-94, 7-[2-(2,2-Dioxo-2,3-dihydro-1H-2-benzo[c]thiophen-5-ylamino)-pyrimidin-4-yl]-2,6,8-trimethyl-3,4-dihydro-2H-pyrrolo[1,2-a]pyrazin-1-one] was tested, and the IC50 was less than 0.1 µM.
Compound `CCN1CCn2c(C)c(-c3ccnc(Nc4cccc(-c5ccnc(C)n5)c4)n3)c(C)c2C1=O` [Example I-95, 2-Ethyl-6,8-dimethyl-7-{2-[3-(2-methyl-pyrimidin-4-yl)-phenylamino]-pyrimidin-4-yl}-3,4-dihydro-2H-pyrrolo[1,2-a]pyrazin-1-one] has an IC50 of less than 1 µM.
`Cc1c(-c2ccnc(Nc3cccc(S(=O)(=O)N4CCCCC4)c3)n2)c(C)n2c1C(=O)NCC2` [Example I-95c, 6,8-Dimethyl-7-{2-[3-(piperidine-1-sulfonyl)-phenylamino]-pyrimidin-4-yl}-3,4-dihydro-2H-pyrrolo[1,2-a]pyrazin-1-one] was tested, and the IC50 was less than 10 µM.
`COCCNC(=O)Cc1ccc(Nc2nccc(-c3c(C)c4n(c3C)CCNC4=O)n2)cc1` [Example I-96, 2-{4-[4-(6,8-Dimethyl-1-oxo-1,2,3,4-tetrahydro-pyrrolo[1,2-a]pyrazin-7-yl)-pyrimidin-2-ylamino]-phenyl}-N-(2-methoxy-ethyl)-acetamide] showed an IC50 of less than 0.1 µM.
Compound `Cc1c(-c2ccnc(Nc3ccc(CC(=O)N(C)CCN(C)C)cc3)n2)c(C)n2c1C(=O)NCC2` [Example I-97, N-(2-Dimethylamino-ethyl)-2-{4-[4-(6,8-dimethyl-1-oxo-1,2,3,4-tetrahydro-pyrrolo[1,2-a]pyrazin-7-yl)-pyrimidin-2-ylamino]-phenyl}-N-methyl-acetamide] has an IC50 of less than 1 µM.
For `Cc1c(-c2ccnc(Nc3ccc(CC(=O)N(C)CCCN(C)C)cc3)n2)c(C)n2c1C(=O)NCC2` [Example I-98, N-(3-Dimethylamino-propyl)-2-{4-[4-(6,8-dimethyl-1-oxo-1,2,3,4-tetrahydro-pyrrolo[1,2-a]pyrazin-7-yl)-pyrimidin-2-ylamino]-phenyl}-N-methyl-acetamide], the IC50 was less than 1 µM.
Work on `Cc1c(-c2ccnc(Nc3ccc(CC(=O)N4CCOCC4)cc3)n2)c(C)n2c1C(=O)NCC2` [Example I-99, 6,8-Dimethyl-7-{2-[4-(2-morpholin-4-yl-2-oxo-ethyl)-phenylamino]-pyrimidin-4-yl}-3,4-dihydro-2H-pyrrolo[1,2-a]pyrazin-1-one] yielded an IC50 of less than 1 µM.
`CC(=O)N1CCN(C(=O)Cc2ccc(Nc3nccc(-c4c(C)c5n(c4C)CCNC5=O)n3)cc2)CC1` [Example I-100, 7-(2-{4-[2-(4-Acetyl-piperazin-1-yl)-2-oxo-ethyl]-phenylamino}-pyrimidin-4-yl)-6,8-dimethyl-3,4-dihydro-2H-pyrrolo[1,2-a]pyrazin-1-one] was tested, and the IC50 was less than 1 µM.
`Cc1c(-c2ccnc(Nc3ccc(CC(=O)N4CCN(C)CC4)cc3)n2)c(C)n2c1C(=O)NCC2` [Example I-101, 6,8-Dimethyl-7-(2-{4-[2-(4-methyl-piperazin-1-yl)-2-oxo-ethyl]-phenylamino}-pyrimidin-4-yl)-3,4-dihydro-2H-pyrrolo[1,2-a]pyrazin-1-one] gave an IC50 of less than 0.1 µM.
In the case of `Cc1c(-c2ccnc(Nc3ccc(CC(N)=O)cc3)n2)c(C)n2c1C(=O)NCC2` [Example I-102, 2-{4-[4-(6,8-Dimethyl-1-oxo-1,2,3,4-tetrahydro-pyrrolo[1,2-a]pyrazin-7-yl)-pyrimidin-2-ylamino]-phenyl}-acetamide], the IC50 is reported as less than 0.1 µM.
`CNC(=O)Cc1ccc(Nc2nccc(-c3c(C)c4n(c3C)CCNC4=O)n2)cc1` [Example I-103, 2-{4-[4-(6,8-Dimethyl-1-oxo-1,2,3,4-tetrahydro-pyrrolo[1,2-a]pyrazin-7-yl)-pyrimidin-2-ylamino]-phenyl}-N-methyl-acetamide] gave an IC50 of less than 0.1 µM.
`Cc1c(-c2ccnc(Nc3ccc(CC(=O)N(C)C)cc3)n2)c(C)n2c1C(=O)NCC2` [Example I-104, 2-{4-[4-(6,8-Dimethyl-1-oxo-1,2,3,4-tetrahydro-pyrrolo[1,2-a]pyrazin-7-yl)-pyrimidin-2-ylamino]-phenyl}-N,N-dimethyl-acetamide] gave an IC50 of less than 1 µM.
With `COCCNC(=O)CCc1cccc(Nc2nccc(-c3c(C)c4n(c3C)CCNC4=O)n2)c1` [Example I-105, 3-{3-[4-(6,8-Dimethyl-1-oxo-1,2,3,4-tetrahydro-pyrrolo[1,2-a]pyrazin-7-yl)-pyrimidin-2-ylamino]-phenyl}-N-(2-methoxy-ethyl)-propionamide] the IC50 was less than 0.1 µM.
`Cc1c(-c2ccnc(Nc3cccc(CCC(=O)N(C)CCN(C)C)c3)n2)c(C)n2c1C(=O)NCC2` [Example I-106, N-(2-Dimethylamino-ethyl)-3-{3-[4-(6,8-dimethyl-1-oxo-1,2,3,4-tetrahydro-pyrrolo[1,2-a]pyrazin-7-yl)-pyrimidin-2-ylamino]-phenyl}-N-methyl-propionamide] was tested, and the IC50 was less than 1 µM.
Compound `Cc1c(-c2ccnc(Nc3cccc(CCC(=O)N(C)CCCN(C)C)c3)n2)c(C)n2c1C(=O)NCC2` [Example I-107, N-(3-Dimethylamino-propyl)-3-{3-[4-(6,8-dimethyl-1-oxo-1,2,3,4-tetrahydro-pyrrolo[1,2-a]pyrazin-7-yl)-pyrimidin-2-ylamino]-phenyl}-N-methyl-propionamide] has an IC50 of less than 1 µM.
Compound `Cc1c(-c2ccnc(Nc3cccc(CCC(=O)N4CCOCC4)c3)n2)c(C)n2c1C(=O)NCC2` [Example I-108, 6,8-Dimethyl-7-{2-[3-(3-morpholin-4-yl-3-oxo-propyl)-phenylamino]-pyrimidin-4-yl}-3,4-dihydro-2H-pyrrolo[1,2-a]pyrazin-1-one] has an IC50 of less than 0.1 µM.
`CC(=O)N1CCN(C(=O)CCc2cccc(Nc3nccc(-c4c(C)c5n(c4C)CCNC5=O)n3)c2)CC1` [Example I-109, 7-(2-{3-[3-(4-Acetyl-piperazin-1-yl)-3-oxo-propyl]-phenylamino}-pyrimidin-4-yl)-6,8-dimethyl-3,4-dihydro-2H-pyrrolo[1,2-a]pyrazin-1-one] gave an IC50 of less than 1 µM.
`Cc1c(-c2ccnc(Nc3cccc(CCC(=O)N4CCN(C)CC4)c3)n2)c(C)n2c1C(=O)NCC2` [Example I-110, 6,8-Dimethyl-7-(2-{3-[3-(4-methyl-piperazin-1-yl)-3-oxo-propyl]-phenylamino}-pyrimidin-4-yl)-3,4-dihydro-2H-pyrrolo[1,2-a]pyrazin-1-one] was tested, and the IC50 was less than 1 µM.
Compound `Cc1c(-c2ccnc(Nc3cccc(CCC(N)=O)c3)n2)c(C)n2c1C(=O)NCC2` [Example I-111, 3-{3-[4-(6,8-Dimethyl-1-oxo-1,2,3,4-tetrahydro-pyrrolo[1,2-a]pyrazin-7-yl)-pyrimidin-2-ylamino]-phenyl}-propionamide] has an IC50 of less than 0.1 µM.

Source: patent US8404692B2, “Pyrimidin-4-yl-3, 4-dihydro-2H-pyrrolo [1,2A] pyrazin-1-one compounds” (Cyclacel Limited, priority 2005, dated 2013)
